Source: patent publication US20160095843A1, “PYRAZOLOPYRROLIDINE DERIVATIVES AND THEIR USE IN THE TREATMENT OF DISEASE” (NOVARTIS AG, priority 2013, published 2016)

What was measured:
THP-1 cells = experiment: Cell growth inhibition assay (CellTiter-Glo), THP-1; format: cell-based; conditions: Homo sapiens
In short: (§1)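 Cellular ATP (CellTiter-Glo luminescence) measured after 4 days at 37° C., 5% CO2 of compound exposure, top concentration 10 μM in 3-fold steps, 0.1% DMSO. Readings corrected for no-cell background and a day-0 plate, normalised to vehicle and medium wells; half-maximal and total growth inhibition from four-parameter curves.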

MV-4-11 cells = experiment: Cell growth inhibition assay (CellTiter-Glo), MV-4-11; format: cell-based; conditions: Homo sapiens, MV4-11
In short: as §1

K-562 cells = experiment: Cell growth inhibition assay (CellTiter-Glo), K-562; format: cell-based, human; conditions: Homo sapiens, K562
In short: as §1

| GI50 (THP-1 cells) [nM] | GI50 (MV-4-11 cells) [nM] | GI50 (K-562 cells) [nM] | Compound |
| --- | --- | --- | --- |
| 36.9 | 40 | 116 | Cc1cc(N2C(=O)c3c(c(CF)nn3C3CC3)C2c2ccc(Cl)cc2)cn2c(C)nnc12 (stereo not drawn) [Example 159, 4-(4-chlorophenyl)-1-cyclopropyl-5-(3,8-dimethyl-[1,2,4]triazolo[4,3-a]pyridin-6-yl)-3-(fluoromethyl)-4,5-dihydropyrrolo[3,4-c]pyrazol-6(1H)-one] |
| 56.1 | 66.2 | 426 | Cc1nn(C2CC2)c2c1C(c1ccc(Cl)cc1)N(c1cn(C)c(=O)c3[nH]ccc13)C2=O (stereo not drawn) [Example 160, 4-(4-(4-chlorophenyl)-1-cyclopropyl-3-methyl-6-oxopyrrolo-[3,4-c]pyrazol-5(1H,4H,6H)-yl)-6-methyl-1H-pyrrolo[2,3-c]pyridin-7(6H)-one] |
| 78.5 | 66.1 | 352 | CNc1cc(N2C(=O)c3c(c(C)nn3C3CC3)[C@H]2c2ccc(Cl)cc2)nn2c(C)nnc12 [Example 161, (R)-4-(4-chlorophenyl)-1-cyclopropyl-3-methyl-5-(3-methyl-8-(methylamino)-[1,2,4]triazolo[4,3-b]pyridazin-6-yl)-4,5-dihydropyrrolo-[3,4-c]pyrazol-6(1H)-one] |
| 54.6 | 41.8 | 244 | COCc1nn(C2CC2)c2c1[C@@H](c1ccc(Cl)cc1)N(c1cc(C)c(=O)n(C)c1)C2=O [Example 162, (R)-4-(4-chlorophenyl)-1-cyclopropyl-5-(1,5-dimethyl-6-oxo-1,6-dihydropyridin-3-yl)-3-(methoxymethyl)-4,5-dihydropyrrolo[3,4-c]pyrazol-6(1H)-one] |
| 17.5 | 10.3 | 79.8 | COCc1nn(C2CC2)c2c1[C@@H](c1ccc(Cl)cc1)N(c1cc(C)c3nnc(C)n3c1)C2=O [Example 163, (R)-4-(4-chlorophenyl)-1-cyclopropyl-5-(3,8-dimethyl-[1,2,4]triazolo[4,3-a]pyridin-6-yl)-3-(methoxymethyl)-4,5-dihydropyrrolo-[3,4-c]pyrazol-6(1H)-one] |
| 9.6 | 7.69 | 98.2 | Cc1cc(N2C(=O)c3c(c(C4CC4)nn3C)[C@H]2c2ccc(Cl)cc2)cn2c(C)nnc12 [Example 164, (R)-4-(4-chlorophenyl)-3-cyclopropyl-5-(3,8-dimethyl-[1,2,4]triazolo[4,3-a]pyridin-6-yl)-1-methyl-4,5-dihydropyrrolo-[3,4-c]pyrazol-6(1H)-one] |
| 38.3 | 21.7 | 190 | Cc1n[nH]c2c1[C@@H](c1ccc(Cl)cc1)N(c1cc(C)c3nnc(C)n3c1)C2=O [Example 165, (R)-4-(4-chlorophenyl)-5-(3,8-dimethyl-[1,2,4]triazolo[4,3-a]pyridin-6-yl)-3-methyl-4,5-dihydropyrrolo[3,4-c]pyrazol-6(1H)-one] |
| 17.1 | 9.38 | 94.6 | Cc1cc(N2C(=O)c3c(c(CO)nn3C3CC3)[C@H]2c2ccc(Cl)cc2)cn2c(C)nnc12 [Example 166, (R)-4-(4-chlorophenyl)-1-cyclopropyl-5-(3,8-dimethyl-[1,2,4]triazolo[4,3-a]pyridin-6-yl)-3-(hydroxymethyl)-4,5-dihydropyrrolo-[3,4-c]pyrazol-6(1H)-one] |
| 59.6 | 27.6 | 294 | Cc1nn(C[C@H](O)C(F)(F)F)c2c1[C@@H](c1ccc(Cl)cc1)N(c1cc(C)c3nnc(C)n3c1)C2=O [Example 167, (R)-4-(4-chlorophenyl)-5-(3,8-dimethyl-[1,2,4]triazolo[4,3-a]pyridin-6-yl)-3-methyl-1-((S)-3,3,3-trifluoro-2-hydroxypropyl)-4,5-dihydropyrrolo-[3,4-c]pyrazol-6(1H)-one] |
| 35.5 | 24.1 | 105 | Cc1nn(C(C)C)c2c1C(c1ccc(Cl)cc1F)N(c1cc(C)c3nnc(C)n3c1)C2=O (stereo not drawn) [Example 168, 4-(4-chloro-2-fluorophenyl)-5-(3,8-dimethyl-[1,2,4]triazolo[4,3-a]pyridin-6-yl)-1-isopropyl-3-methyl-4,5-dihydropyrrolo[3,4-c]pyrazol-6(1H)-one] |
| 50.5 | 31.1 | 276 | Cc1cc(N2C(=O)c3nn(C(C)C)c(C)c3C2c2ccc(Cl)cc2F)cn2c(C)nnc12 (stereo not drawn) [Example 169, 4-(4-chloro-2-fluorophenyl)-5-(3,8-dimethyl-[1,2,4]triazolo[4,3-a]pyridin-6-yl)-2-isopropyl-3-methyl-4,5-dihydropyrrolo[3,4-c]pyrazol-6(2H)-one] |
| 13.4 | 7.66 | 48.5 | CCn1nc(C)c2c1C(=O)N(c1cc(C)c(=O)n(C)c1)C2c1ccc(Cl)cc1F (stereo not drawn) [Example 170, 4-(4-chloro-2-fluorophenyl)-5-(1,5-dimethyl-6-oxo-1,6-dihydropyridin-3-yl)-1-ethyl-3-methyl-4,5-dihydropyrrolo-[3,4-c]pyrazol-6(1H)-one] |
| 118 | 93.8 | 442 | CCn1nc2c(c1C)C(c1ccc(Cl)cc1F)N(c1cc(C)c(=O)n(C)c1)C2=O (stereo not drawn) [Example 171, 4-(4-chloro-2-fluorophenyl)-5-(1,5-dimethyl-6-oxo-1,6-dihydropyridin-3-yl)-2-ethyl-3-methyl-4,5-dihydropyrrolo[3,4-c]pyrazol-6(2H)-one] |
| 254 | 176 | 1080 | Cc1n[nH]c2c1C(c1ccc(F)cc1F)N(c1cc(C)c3nnc(C)n3c1)C2=O (stereo not drawn) [Example 172, 4-(2,4-difluorophenyl)-5-(3,8-dimethyl-[1,2,4]triazolo[4,3-a]pyridin-6-yl)-3-methyl-4,5-dihydropyrrolo[3,4-c]pyrazol-6(2H)-one] |
| 91.6 | 57.1 | 328 | COc1ncccc1-n1nc(C)c2c1C(=O)N(c1cc(C)c3nnc(C)n3c1)C2c1ccc(F)cc1F (stereo not drawn) [Example 173, 4-(2,4-difluorophenyl)-5-(3,8-dimethyl-[1,2,4]triazolo[4,3-a]pyridin-6-yl)-1-(2-methoxypyridin-3-yl)-3-methyl-4,5-dihydropyrrolo-[3,4-c]pyrazol-6(1H)-one] |
| 43.8 | 26.7 | 158 | Cc1nn(C(C)C)c2c1C(c1ccc(F)cc1F)N(c1cc(C)c3nnc(C)n3c1)C2=O (stereo not drawn) [Example 174, 4-(2,4-difluorophenyl)-5-(3,8-dimethyl-[1,2,4]triazolo[4,3-a]pyridin-6-yl)-1-isopropyl-3-methyl-4,5-dihydropyrrolo[3,4-c]pyrazol-6(1H)-one] |
| 66.2 | 42.2 | 192 | Cc1cc(N2C(=O)c3nn(C(C)C)c(C)c3C2c2ccc(F)cc2F)cn2c(C)nnc12 (stereo not drawn) [Example 175, 4-(2,4-difluorophenyl)-5-(3,8-dimethyl-[1,2,4]triazolo[4,3-a]pyridin-6-yl)-2-isopropyl-3-methyl-4,5-dihydropyrrolo-[3,4-c]pyrazol-6(2H)-one] |
| 55.6 | 30.3 | 145 | Cc1nn(C2CC2)c2c1C(c1ccc(F)cc1F)N(c1cc(C)c3nnc(C)n3c1)C2=O (stereo not drawn) [Example 176, 1-cyclopropyl-4-(2,4-difluorophenyl)-5-(3,8-dimethyl-[1,2,4]triazolo[4,3-a]pyridin-6-yl)-3-methyl-4,5-dihydropyrrolo-[3,4-c]pyrazol-6(1H)-one] |
| 64.4 | 67.5 | 331 | COc1ccccc1-n1nc(C)c2c1C(=O)N(c1cc(C)c3nnc(C)n3c1)C2c1ccc(F)cc1F (stereo not drawn) [Example 177, 4-(2,4-difluorophenyl)-5-(3,8-dimethyl-[1,2,4]triazolo[4,3-a]pyridin-6-yl)-1-(2-methoxyphenyl)-3-methyl-4,5-dihydropyrrolo-[3,4-c]pyrazol-6(1H)-one] |
| 42.5 | 28.2 | 137 | Cc1nn(C2CC2)c2c1C(c1ccc(Cl)cc1F)N(c1cc(C)c3nnc(C)n3c1)C2=O (stereo not drawn) [Example 178, 4-(4-chloro-2-fluorophenyl)-1-cyclopropyl-5-(3,8-dimethyl-[1,2,4]triazolo[4,3-a]pyridin-6-yl)-3-methyl-4,5-dihydropyrrolo[3,4-c]pyrazol-6(1H)-one] |
| 112 | 77.4 | 372 | Cc1nn(C2CC2)c2c1C(c1ccc(Cl)cc1F)N(c1cc(C)c(=O)n(C)c1)C2=O (stereo not drawn) [Example 179, 4-(4-chloro-2-fluorophenyl)-1-cyclopropyl-5-(1,5-dimethyl-6-oxo-1,6-dihydropyridin-3-yl)-3-methyl-4,5-dihydropyrrolo[3,4-c]pyrazol-6(1H)-one] |
| 81.4 | 68 | 266 | Cc1nn(C(C)C)c2c1C(c1ccc(Cl)cc1F)N(c1cc(C)c(=O)n(C)c1)C2=O (stereo not drawn) [Example 180, 4-(4-chloro-2-fluorophenyl)-5-(1,5-dimethyl-6-oxo-1,6-dihydropyridin-3-yl)-1-isopropyl-3-methyl-4,5-dihydropyrrolo[3,4-c]pyrazol-6(1H)-one] |
| 51.9 | 47.1 | 160 | CCn1nc(C)c2c1C(=O)N(c1cc(C)c3nnc(C)n3c1)C2c1ccc(F)cc1F (stereo not drawn) [Example 181, 4-(2,4-difluorophenyl)-5-(3,8-dimethyl-[1,2,4]triazolo[4,3-a]pyridin-6-yl)-1-ethyl-3-methyl-4,5-dihydropyrrolo[3,4-c]pyrazol-6(1H)-one] |
| 87.5 | 63.2 | 280 | CCn1nc2c(c1C)C(c1ccc(F)cc1F)N(c1cc(C)c3nnc(C)n3c1)C2=O (stereo not drawn) [Example 182, 4-(2,4-difluorophenyl)-5-(3,8-dimethyl-[1,2,4]triazolo[4,3-a]pyridin-6-yl)-2-ethyl-3-methyl-4,5-dihydropyrrolo-[3,4-c]pyrazol-6(2H)-one] |
